Structures are written as SMILES.

This assay concerns the target human full-length MKNK1 (Homo sapiens (Human), UniProt Q9BUB5, T344D). Nature of the assay: MKNK1 kinase high ATP assay (TR-FRET). In kind it is biochemical. The note with it: 2 mM ATP, 15 min preincubation with enzyme, GST-MKNK1 (T344D). The essentials:
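GST-tagged full-length human MKNK1 (1-424, T344D, baculovirus-expressed) preincubated 15 min at 22 °C with compound, then reacted 30 min at 22 °C with 2 mM ATP and 0.06 μM biotinylated peptide (final) in HEPES pH 7.5. Phospho-substrate by TR-FRET (665/622 nm ratio), normalised to no-inhibitor and no-enzyme controls.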

Sequence of human full-length MKNK1 (Q9BUB5 other isoform, or with tags, fused parts or gaps T344D): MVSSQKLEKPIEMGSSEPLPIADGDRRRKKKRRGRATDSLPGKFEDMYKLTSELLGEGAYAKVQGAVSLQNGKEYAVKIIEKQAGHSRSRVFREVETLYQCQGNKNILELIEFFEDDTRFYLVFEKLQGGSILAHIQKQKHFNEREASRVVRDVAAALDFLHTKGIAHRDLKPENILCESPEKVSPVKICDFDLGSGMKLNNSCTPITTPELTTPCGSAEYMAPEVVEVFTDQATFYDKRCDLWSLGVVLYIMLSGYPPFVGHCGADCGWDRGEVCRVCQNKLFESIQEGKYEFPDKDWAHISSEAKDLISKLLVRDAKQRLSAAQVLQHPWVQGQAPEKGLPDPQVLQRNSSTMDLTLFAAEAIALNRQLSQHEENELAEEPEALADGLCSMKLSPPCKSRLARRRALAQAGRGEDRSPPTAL

Regarding `CCNC(=O)N1Cc2ncnc(Nc3cc(C)c4n(c3=O)C3(CCCCC3)NC4=O)c2C1` [Example 75, N-Ethyl-4-[(8′-methyl-1′,5′-dioxo-1′,5′-dihydro-2′H-spiro[cyclohexane-1,3′-imidazo[1,5-a]pyridin]-6′-yl)amino]-5,7-dihydro-6H-pyrrolo[3,4-d]pyrimidine-6-carboxamide], the IC50 (commonly the concentration that gives 50% inhibition) was 11.9 nM.

The compound `Cc1cc(Nc2ncnc3c2CNC3)c(=O)n2c1C(=O)NC2(C)C` [Example 165, 6-(6,7-Dihydro-5H-pyrrolo[3,4-d]pyrimidin-4-ylamino)-3,3,8-trimethyl-2,3-dihydroimidazo[1,5-a]pyridine-1,5-dione] yielded a 50% inhibitory concentration (IC50) of 168 nM.

In turn, `COc1cc2ncnc(Nc3cc(C)c4n(c3=O)C3(CCCCC3)NC4=O)c2cc1OC` [Example 119, 6′-[(6,7-Dimethoxyquinazolin-4-yl)amino]-8′-methyl-2′H-spiro[cyclohexane-1,3′-imidazo[1,5-a]pyridine]-1′,5′-dione] registered an IC50 of 3 nM.

In the case of `Cc1cc(Nc2ncnc3sc(C(=O)N(C)C)c(C)c23)c(=O)n2c1C(=O)NC21CCCCC1` [Example 16, N,N,5-trimethyl-4-[(8′-methyl-1′,5′-dioxo-1′,5′-dihydro-2′H-spiro[cyclohexane-1,3′-imidazo[1,5-a]pyridin]-6′-yl)amino]thieno[2,3-d]pyrimidine-6-carboxamide], half-maximal inhibition (IC50) required 66.7 nM.

In turn, `Cc1cc(Nc2ncnc3sccc23)c(=O)n2c1C(=O)NC21CCC(F)(F)CC1` [Example 89, 4,4-Difluoro-8′-methyl-6′-(thieno[2,3-d]pyrimidin-4-ylamino)-2′H-spiro[cyclohexane-1,3′-imidazo[1,5-a]pyridine]-1′,5′-dione] showed an IC50 of 12.8 nM.

As to `Cc1cc(Nc2ncnc3c2CN(S(=O)(=O)CC(F)(F)F)C3)c(=O)n2c1C(=O)NC21CCCCC1` [Example 73, 8′-methyl-6′-({6-[(2,2,2-trifluoroethyl)sulfonyl]-6,7-dihydro-5H-pyrrolo[3,4-d]pyrimidin-4-yl}amino)-2′H-spiro[cyclohexane-1,3′-imidazo[1,5-a]pyridine]-1′,5′-dione], the IC50 was determined as 168 nM.

For the compound `Cc1cc(Nc2ncnc3cc(F)ccc23)c(=O)n2c1C(=O)NC21CCCCC1` [Example 112, 6′-[(7-Fluoroquinazolin-4-yl)amino]-8′-methyl-2′H-spiro[cyclohexane-1,3′-imidazo[1,5-a]pyridine]-1′,5′-dione], the IC50 was 25.3 nM.

For `Cc1cc(Nc2ncnc3ccc(Cl)cc23)c(=O)n2c1C(=O)N[C@]21CC[C@@](O)(C(F)(F)C(F)(F)F)CC1` [Example 195, (cis)-6′-[(6-chloroquinazolin-4-yl)amino]-4-hydroxy-8′-methyl-4-(pentafluoroethyl)-2′H-spiro[cyclohexane-1,3′-imidazo[1,5-a]pyridine]-1′,5′-dione], the IC50 is 342 nM.

As to `Cc1cc(Nc2ncnc3sc(C(=O)N4C[C@H]5C[C@@H]4CN5C)cc23)c(=O)n2c1C(=O)NC21CCCCC1` [Example 42, 8′-Methyl-6′-[(6-{[(1R,4R)-5-methyl-2,5-diazabicyclo[2.2.1]hept-2-yl]carbonyl}thieno[2,3-d]pyrimidin-4-yl)amino]-2′H-spiro[cyclohexane-1,3′-imidazo[1,5-a]pyridine]-1′,5′-dione], it took 1.9 nM to reach half-maximal inhibition (IC50).

As for `Cc1cc(Nc2ncnc3[nH]cnc23)c(=O)n2c1C(=O)NC21CCC1` [Example 159, 8′-Methyl-6′-(9H-purin-6-ylamino)-2′H-spiro[cyclobutane-1,3′-imidazo[1,5-a]pyridine]-1′,5′-dione], 2.1 nM corresponded to half-maximal inhibition (IC50).

`Cc1cc(Nc2ncnc3sc(C(=O)NCCN(C)C)cc23)c(=O)n2c1C(=O)NC21CCC(O)(C(F)(F)F)CC1` (stereo not drawn) [Example 129, N-[2-(Dimethylamino)ethyl]-4-{[4-hydroxy-8′-methyl-1′,5′-dioxo-4-(trifluoromethyl)-1′,5′-dihydro-2′H-spiro[cyclohexane-1,3′-imidazo[1,5-a]pyridin]-6′-yl]amino}thieno[2,3-d]pyrimidine-6-carboxamide]: the IC50 was 21 nM.

The compound `Cc1cc(Nc2ncnc3[nH]ncc23)c(=O)n2c1C(=O)NC21CCCC1` [Example 68, 8′-methyl-6′-(1H-pyrazolo[3,4-d]pyrimidin-4-ylamino)-2′H-spiro[cyclopentane-1,3′-imidazo[1,5-a]pyridine]-1′,5′-dione] had an IC50 of 1.8 nM.

The compound `Cc1cc(Nc2ncnc3[nH]ncc23)c(=O)n2c1C(=O)NC21CCC(F)(F)CC1` [Example 105, 4,4-Difluoro-8′-methyl-6′-(1H-pyrazolo[3,4-d]pyrimidin-4-ylamino)-2′H-spiro[cyclohexane-1,3′-imidazo[1,5-a]pyridine]-1′,5′-dione] returned an IC50 of 8.3 nM.

Compound `Cc1cc(Nc2ncnc3c2ncn3CC(C)O)c(=O)n2c1C(=O)NC21CCCCC1` (racemic) [Example 39, (RS)-6′-{[9-(2-Hydroxypropyl)-9H-purin-6-yl]amino}-8′-methyl-2′H-spiro[cyclohexane-1,3′-imidazo[1,5-a]pyridine]-1′,5′-dione] had an IC50 of 744 nM.

`Cc1cc(Nc2ncnc3cccc(C)c23)c(=O)n2c1C(=O)NC21CCC1` [Example 170, 8′-methyl-6′-[(5-methylquinazolin-4-yl)amino]-2′H-spiro[cyclobutane-1,3′-imidazo[1,5-a]pyridine]-1′,5′-dione] returned an IC50 of 5.3 nM.

As for `Cc1cc(Nc2ncnc3c2CN(S(C)(=O)=O)C3)c(=O)n2c1C(=O)NC21CCCCC1` [Example 69, 8′-methyl-6′-{[6-(methylsulfonyl)-6,7-dihydro-5H-pyrrolo[3,4-d]pyrimidin-4-yl]amino}-2′H-spiro[cyclohexane-1,3′-imidazo[1,5-a]pyridine]-1′,5′-dione], the midpoint of inhibition, the IC50, lay at 144 nM.

For `Cc1cc(Nc2ncnc(N)n2)c(=O)n2c1C(=O)NC21CCCCC1` [Example 2, 6′-[(4-Amino-1,3,5-triazin-2-yl)amino]-8′-methyl-2′H-spiro[cyclohexane-1,3′-imidazo[1,5-a]pyridine]-1′,5′-dione], 6.4 nM corresponded to half-maximal inhibition (IC50).

The compound `Cc1cc(Nc2ncnc3sc(C(=O)N4CCN(C)CC4)c(C)c23)c(=O)n2c1C(=O)NC21CCCCC1` [Example 19, 8′-methyl-6′-({5-methyl-6-[(4-methylpiperazin-1-yl)carbonyl]thieno[2,3-d]pyrimidin-4-yl}amino)-2′H-spiro[cyclohexane-1,3′-imidazo[1,5-a]pyridine]-1′,5′-dione] came in with an IC50 of 34.2 nM.

Turning to `Cc1cc(Nc2ncnc3sc(C(=O)NCCN(C)C)cc23)c(=O)n2c1C(=O)NC21CCC(F)(F)CC1` [Example 81, 4-[(4,4-Difluoro-8′-methyl-1′,5′-dioxo-1′,5′-dihydro-2′H-spiro[cyclohexane-1,3′-imidazo[1,5-a]pyridin]-6′-yl)amino]-N-[2-(dimethylamino)ethyl]thieno[2,3-d]pyrimidine-6-carboxamide], the half-inhibitory concentration (IC50) was determined as 5 nM.

In the case of `Cc1cc(Nc2ncnc3sc(C(=O)N4CCC(N(C)C)CC4)cc23)c(=O)n2c1C(=O)NC2(C)C` [Example 143, 6-[(6-{[4-(Dimethylamino)piperidin-1-yl]carbonyl}thieno[2,3-d]pyrimidin-4-yl)amino]-3,3,8-trimethyl-2,3-dihydroimidazo[1,5-a]pyridine-1,5-dione], half-maximal inhibition (IC50) required 40.3 nM.

With `Cc1cc(Nc2ncnc3sc(C(=O)NCCN(C)C)cc23)c(=O)n2c1C(=O)NC21CCCCC1` [Example 25, N-[2-(Dimethylamino)ethyl]-4-[(8′-methyl-1′,5′-dioxo-1′,5′-dihydro-2′H-spiro[cyclohexane-1,3′-imidazo[1,5-a]pyridin]-6′-yl)amino]thieno[2,3-d]pyrimidine-6-carboxamide], the 50% inhibitory concentration (IC50) was found to be 1.9 nM.

The compound `Cc1cc(Nc2ncnc3sc(C(=O)N(C)CCN(C)C)cc23)c(=O)n2c1C(=O)NC21CCC1` [Example 152, N-[2-(Dimethylamino)ethyl]-N-methyl-4-[(8′-methyl-1′,5′-dioxo-1′,5′-dihydro-2′H-spiro[cyclobutane-1,3′-imidazo[1,5-a]pyridin]-6′-yl)amino]thieno[2,3-d]pyrimidine-6-carboxamide] gave an IC50 of 7.4 nM.

As to `Cc1cc(Nc2ncnc3[nH]cnc23)c(=O)n2c1C(=O)NC21CCC(F)(F)CC1` [Example 106, 4,4-Difluoro-8′-methyl-6′-(9H-purin-6-ylamino)-2′H-spiro[cyclohexane-1,3′-imidazo[1,5-a]pyridine]-1′,5′-dione], the half-inhibitory concentration (IC50) amounted to 3.5 nM.

In turn, `Cc1cc(Nc2ncnc3ccc(F)cc23)c(=O)n2c1C(=O)N[C@]21CC[C@@](O)(C(F)(F)C(F)(F)F)CC1` [Example 192, (cis)-6′-[(6-fluoroquinazolin-4-yl)amino]-4-hydroxy-8′-methyl-4-(pentafluoroethyl)-2′H-spiro[cyclohexane-1,3′-imidazo[1,5-a]pyridine]-1′,5′-dione] had an IC50 of 281 nM.

Compound `Cc1cc(Nc2ncnc3sccc23)c(=O)n2c1C(=O)NC2(C)C` [Example 135, 3,3,8-Trimethyl-6-(thieno[2,3-d]pyrimidin-4-ylamino)-2,3-dihydroimidazo[1,5-a]pyridine-1,5-dione] showed an IC50 of 19.8 nM.

With `Cc1cc(Nc2ncnc3sc(C(=O)N4CC(NC(=O)OC(C)(C)C)C4)cc23)c(=O)n2c1C(=O)NC21CCCC1` [Example 62, tert-Butyl [1-({4-[(8′-methyl-1′,5′-dioxo-1′,5′-dihydro-2′H-spiro[cyclopentane-1,3′-imidazo[1,5-a]pyridin]-6′-yl)amino]thieno[2,3-d]pyrimidin-6-yl}carbonyl)azetidin-3-yl]carbamate], half-maximal inhibition (IC50) was put at 4 nM.

In the case of `Cc1cc(Nc2ncnc3sc(C(=O)N4CC(C#N)C4)cc23)c(=O)n2c1C(=O)NC2(C)C` [Example 141, 1-({4-[(3,3,8-Trimethyl-1,5-dioxo-1,2,3,5-tetrahydroimidazo[1,5-a]pyridin-6-yl)amino]thieno[2,3-d]pyrimidin-6-yl}carbonyl)azetidine-3-carbonitrile], the IC50 came to 24.2 nM.

These data come from patent US11311520B2, “Substituted dihydroimidazopyridinediones as MKNK1 and MKNK2 inhibitors” (Bayer Pharma Aktiengesellschaft, priority 2017, dated 2022).
